The source of these data is ChEMBL document CHEMBL1201862, “PubChem BioAssay data set” (2004).

For orientation: AC50 means the midpoint of the concentration-response curve, whichever way the signal moves. For orientation: EC50 means the concentration that produces a half-maximal response. As usually defined, the IC50 is the concentration that inhibits the measured activity by half.

The structures appear in SMILES notation. Activity calls are given as the source filed them. Some results are limits rather than exact numbers.

Assay [1] deals with Escherichia coli. Briefly: microbe, parasite or virus in culture.
Assay [2] addresses T1, Endoribonuclease toxin MazF (Escherichia coli K-12, UniProt P0AE70).
T1 sequence (P0AE70 whole entry): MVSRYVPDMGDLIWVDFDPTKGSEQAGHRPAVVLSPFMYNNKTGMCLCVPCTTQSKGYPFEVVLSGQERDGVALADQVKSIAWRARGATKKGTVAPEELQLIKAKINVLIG
Kind of assay: activation of MazEF endoribonuclease cleavage – biochemical, fluorescence, single-stranded RNA substrate, uHTS hits, dose response (AID 588481). In kind it is functional.

Assay [3] has as its target T1, Endoribonuclease toxin MazF. Kind of assay: substrate-only fluorescence increase artefacts – biochemical, single-stranded RNase substrate, counter-screen for MazEF activator project, dose response (AID 588502). In kind it is functional. For orientation: The purpose of a counterscreen is to sort out artefacts and off-target activity.
The subject of assay [4] is Escherichia coli. Briefly: microbe, parasite or virus in culture. The source holds these as a separate data set.
The target of assay [5] is Glyceraldehyde-3-phosphate dehydrogenase (Homo sapiens, UniProt P04406).
Glyceraldehyde-3-phosphate dehydrogenase, sequence (P04406 whole entry): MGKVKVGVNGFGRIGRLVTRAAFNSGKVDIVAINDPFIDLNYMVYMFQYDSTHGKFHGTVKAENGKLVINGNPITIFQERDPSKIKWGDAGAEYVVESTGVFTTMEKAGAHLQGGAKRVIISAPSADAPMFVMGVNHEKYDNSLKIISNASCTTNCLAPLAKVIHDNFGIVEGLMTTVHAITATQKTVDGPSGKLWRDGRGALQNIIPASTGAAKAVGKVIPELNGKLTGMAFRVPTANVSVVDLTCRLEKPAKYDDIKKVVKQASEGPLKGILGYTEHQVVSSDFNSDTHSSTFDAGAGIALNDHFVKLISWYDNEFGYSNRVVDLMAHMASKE
Assay [6] addresses Alkaline phosphatase, placental type (Homo sapiens, UniProt P05187). Kind of assay: human placental alkaline phosphatase inhibition – biochemical, luminescence, confirmation (AID 1512). In kind it is functional.
Assay [7] addresses T2, Bcl-2-related protein A1 (Mus musculus, UniProt Q07440).
T2 sequence (Q07440 whole entry): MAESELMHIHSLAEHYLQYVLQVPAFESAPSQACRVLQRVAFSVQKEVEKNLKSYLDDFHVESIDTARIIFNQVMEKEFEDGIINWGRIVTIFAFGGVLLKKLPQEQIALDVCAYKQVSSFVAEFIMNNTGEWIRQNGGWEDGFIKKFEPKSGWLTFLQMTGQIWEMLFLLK
The format is functional.

In assay [8] the target is T3, Ubiquitin-conjugating enzyme E2 N (Homo sapiens, UniProt P61088).
T3 sequence (P61088 whole entry): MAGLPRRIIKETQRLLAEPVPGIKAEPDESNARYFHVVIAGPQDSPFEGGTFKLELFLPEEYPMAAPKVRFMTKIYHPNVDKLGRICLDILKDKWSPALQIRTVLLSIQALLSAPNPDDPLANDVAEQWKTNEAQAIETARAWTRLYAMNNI
In kind it is functional.

The target in assay [9] is T3, Ubiquitin-conjugating enzyme E2 N. The format is functional. The source holds these as a separate data set.
A short description of assay [10]: NIH-3T3 fibroblast cytotoxicity, dose response, cytotoxicity control, cell-based, fluorescence, Alamar Blue, secondary assay (AID 2327).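 Further: NIH-3T3 mouse fibroblasts cultured with fluconazole at 8 µg/mL.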 In kind it is functional.
Assay [11] can be described thus: fluconazole-exposed Candida albicans growth modulators – fluorescence, retest, confirmation (AID 2467). In kind it is functional, cell-based.
The target of assay [12] is T4, Serine/threonine-protein phosphatase (Candida dubliniensis (strain CD36 / CBS 7987 / NCPF 3949 / NRRLY-17841) (Yeast), UniProt B9W6M3).
T4 sequence (B9W6M3 whole entry): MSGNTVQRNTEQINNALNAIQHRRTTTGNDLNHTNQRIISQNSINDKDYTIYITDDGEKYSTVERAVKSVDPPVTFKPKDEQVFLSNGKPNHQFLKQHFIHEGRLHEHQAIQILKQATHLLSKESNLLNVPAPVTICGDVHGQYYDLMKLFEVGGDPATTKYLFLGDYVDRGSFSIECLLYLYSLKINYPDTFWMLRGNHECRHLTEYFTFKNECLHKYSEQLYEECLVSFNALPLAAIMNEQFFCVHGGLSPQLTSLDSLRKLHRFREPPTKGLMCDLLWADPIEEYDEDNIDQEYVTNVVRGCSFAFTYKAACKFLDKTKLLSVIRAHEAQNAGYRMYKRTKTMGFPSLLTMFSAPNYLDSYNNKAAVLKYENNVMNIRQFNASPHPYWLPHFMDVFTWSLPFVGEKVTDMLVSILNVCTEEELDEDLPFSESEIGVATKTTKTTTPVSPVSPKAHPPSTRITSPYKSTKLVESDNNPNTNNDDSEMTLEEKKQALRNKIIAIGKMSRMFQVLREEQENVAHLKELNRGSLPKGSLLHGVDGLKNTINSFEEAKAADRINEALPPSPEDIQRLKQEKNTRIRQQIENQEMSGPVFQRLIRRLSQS
Kind of assay: blockers of CaCl2-induced CDRE-lacZ signaling – S. cerevisiae, luminescence, secondary, dose response (AID 2388).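 Further: yeast reporter cells carrying a calcineurin-responsive lacZ construct stimulated with calcium chloride; luminescent beta-galactosidase reporter signal in whole cells rather than isolated phosphatase activity; potency for inhibition where a drop in reporter signal means calcineurin blockade.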 In kind it is functional, cell-based.

Assay [13] concerns the target ATP-dependent molecular chaperone HSP82 (Candida albicans (strain WO-1) (Yeast), UniProt C4YTQ8). Kind of assay: steroid-induced GRE reporter decrease in yeast – S. cerevisiae, luminescence, Hsp90 inhibitor project, dose response (AID 2400).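 Further: beta-galactosidase luminescence from glucocorticoid response element reporter as proxy for Hsp90 function; inhibitor potency where signal loss means Hsp90 inhibition.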 In kind it is functional, cell-based.
For assay [14], the target named is G-protein coupled receptor 55 (Homo sapiens, UniProt Q9Y2T6). Kind of assay: inhibition of LPI-stimulated GPR55 beta-arrestin translocation – imaging, U2OS, beta-arrestin-GFP, LPI agonist, primary screen (AID 2013).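 Further: antagonist potency measured as reduced agonist-driven arrestin aggregation.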 The format is functional.
G-protein coupled receptor 55, sequence (Q9Y2T6 whole entry): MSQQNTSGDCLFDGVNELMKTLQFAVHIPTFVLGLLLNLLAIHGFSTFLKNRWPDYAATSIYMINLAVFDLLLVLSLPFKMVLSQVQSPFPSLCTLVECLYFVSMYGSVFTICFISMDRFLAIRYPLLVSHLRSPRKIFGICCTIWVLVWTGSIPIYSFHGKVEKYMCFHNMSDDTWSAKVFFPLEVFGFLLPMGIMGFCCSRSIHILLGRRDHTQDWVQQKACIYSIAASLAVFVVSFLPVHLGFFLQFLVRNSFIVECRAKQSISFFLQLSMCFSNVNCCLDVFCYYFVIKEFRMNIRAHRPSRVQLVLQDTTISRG
Assay [15] is described as follows: luciferase reporter signal suppression in cells – H4 neuroglioma cells, luminescence, dose response (AID 1990). In kind it is functional, cell-based.
The nature of assay [16]: Luminescence Cell-Based Dose Response HTS to Identify Inhibitors of 5'UTR Stem-Loop Driven Prion Protein mRNA Translation in H4 Neuroglioblastoma Cells. [Related pubchem assays: 1827 (Project Summary), 1813 (Primary HTS)]. In kind it is functional.
Assay [17] can be described thus: alpha-synuclein stem-loop luciferase translation blockers – H4 neuroglioma cells, luminescence, confirmation (AID 1988). The format is functional, cell-based.

ATP-dependent molecular chaperone HSP82, sequence (C4YTQ8 whole entry): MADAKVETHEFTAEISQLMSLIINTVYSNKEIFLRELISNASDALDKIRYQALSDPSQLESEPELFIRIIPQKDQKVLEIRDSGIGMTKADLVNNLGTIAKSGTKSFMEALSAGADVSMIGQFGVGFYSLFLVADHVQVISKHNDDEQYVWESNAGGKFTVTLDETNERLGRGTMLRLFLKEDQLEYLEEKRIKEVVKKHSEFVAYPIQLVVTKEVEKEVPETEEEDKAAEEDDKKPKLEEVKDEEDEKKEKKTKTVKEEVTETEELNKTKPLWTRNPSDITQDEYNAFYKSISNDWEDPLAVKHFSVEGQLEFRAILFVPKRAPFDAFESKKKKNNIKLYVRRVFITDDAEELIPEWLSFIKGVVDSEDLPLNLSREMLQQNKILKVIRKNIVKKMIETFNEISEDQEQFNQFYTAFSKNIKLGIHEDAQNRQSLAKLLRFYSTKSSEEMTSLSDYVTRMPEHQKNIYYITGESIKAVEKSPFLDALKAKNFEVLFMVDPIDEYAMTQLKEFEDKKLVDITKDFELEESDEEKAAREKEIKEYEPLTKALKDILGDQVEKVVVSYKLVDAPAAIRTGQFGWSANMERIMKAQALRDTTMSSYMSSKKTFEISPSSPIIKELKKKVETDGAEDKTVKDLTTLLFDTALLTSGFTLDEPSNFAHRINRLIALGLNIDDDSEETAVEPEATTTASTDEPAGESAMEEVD
Alkaline phosphatase, placental type, sequence (P05187 whole entry): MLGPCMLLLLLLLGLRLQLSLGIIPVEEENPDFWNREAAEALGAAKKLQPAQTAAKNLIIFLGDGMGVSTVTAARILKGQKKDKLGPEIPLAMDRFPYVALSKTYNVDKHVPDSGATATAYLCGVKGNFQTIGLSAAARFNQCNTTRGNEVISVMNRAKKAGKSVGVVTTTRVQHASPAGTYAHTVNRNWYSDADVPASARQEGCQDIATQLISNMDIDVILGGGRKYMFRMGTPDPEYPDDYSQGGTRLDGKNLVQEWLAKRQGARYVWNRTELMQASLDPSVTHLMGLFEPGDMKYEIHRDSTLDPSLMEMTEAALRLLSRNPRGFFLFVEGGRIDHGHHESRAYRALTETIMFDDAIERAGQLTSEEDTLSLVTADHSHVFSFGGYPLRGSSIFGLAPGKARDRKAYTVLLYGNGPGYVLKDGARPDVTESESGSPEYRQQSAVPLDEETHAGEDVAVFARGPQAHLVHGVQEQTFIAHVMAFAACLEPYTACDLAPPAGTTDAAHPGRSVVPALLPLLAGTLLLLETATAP

For the compound `CC(C)(C)c1cc(NS(=O)(=O)c2ccc3c(c2)OCCO3)on1`, the half-maximal activity concentration (AC50) in assay [1] was 31 µM (active).
For the compound `COC(=O)C1=C(C)N(Cc2ccco2)C(=O)/C1=C\c1ccc(N(C)C)cc1`, the results for the EC50 in [2] and in assay [3] were 10.7 µM (active) and 37.5 µM (inactive), respectively.
`NC(=O)c1ncn([C@@H]2O[C@H](CNCc3cccn3-c3ccncc3)[C@@H](O)[C@H]2O)n1`: the AC50 in assay [4] was 24 µM (active).
As to `COc1ccc(S(=O)(=O)N2CCCCCC2)cc1NC(=O)c1c2c(nc3ccccc13)CCN(Cc1ccccc1)C2`, the half-maximal activity concentration (AC50) is 26 µM (active) in assay [4] and 52 µM (active) in [1].
In the case of `CCN1CCN(C(=O)c2cc(-c3ccc(Cl)cc3Cl)n[nH]2)CC1`, the half-inhibitory concentration (IC50) in assay [5] was > 100 µM (not active); in assay [6] it was > 100 µM (inactive).
Consider `Cc1ccc(S(=O)(=O)n2cc(C=O)c3ccccc32)cc1`, for which the IC50 in assay [7] was > 20 µM (inactive); in assay [8] it was 9.59 µM (active); in [9] it was 11 µM (active).
For `O=C1CC(c2cc(-c3ccccc3)no2)C1`, in [4], the half-maximal activity concentration (AC50) was 34.5 µM (active).
Take `CCc1nnc(NC(=O)CN2CCN(c3nc(-c4ccccc4)cs3)CC2)s1`: the EC50 was > 150 µM (inconclusive) in assay [10], 1.18 µM (active) in assay [11], > 180 µM (inactive) in [12] and > 150 µM (inactive) in assay [13].
For the compound `O=C(c1cccc(Oc2ccc([N+](=O)[O-])cc2Cl)c1)N1CCCCC1`, in [14], the IC50 is 5.09 µM (active).
As for `Cc1ccnc(SCCn2c(N3CC(C)CC(C)C3)nc3c2c(=O)n(C)c(=O)n3C)n1` (stereo unspecified), the concentration giving a half-maximal response (EC50) is 39.1 µM (active) in assay [15], > 120 µM (not active) in assay [16] and > 120 µM (not active) in assay [17]. In addition, in [1], the AC50 is 35.1 µM (active).
For `CCN=C(S)NNC(=O)c1cc(-c2ccccc2C)nc2ccccc12`, the EC50 was > 160 µM (inactive) in assay [10], 0.931 µM (active) in assay [11], > 180 µM (inactive) in assay [12] and > 160 µM (inactive) in assay [13].
Regarding `O=[N+]([O-])c1ccc2[nH]c(O)c(N=NC(S)=NCC3CCCO3)c2c1` (stereo unspecified), the IC50 in assay [7] was > 20 µM (inactive); in [8], 15.9 µM (active); in assay [9], 0.664 µM (active).
As to `CC1=CC(C)(C)n2c(O)c(/N=N/C(=N)S)c3cccc1c32`, the IC50 was > 20 µM (inactive) in assay [7], 6.09 µM (active) in assay [8] and 4.79 µM (active) in [9].
